Reference: PubChem BioAssay (NCI)
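96-well plates; 48 h exposure; 5 concentrations. Endpoints by linear interpolation between flanking doses. Not reached: highest tested concentration assigned. Here, GI50 denotes the concentration required for 50% inhibition of growth. TGI marks complete inhibition of growth.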

What was measured:
Experiment in all cases: NCI-60 cell line screen, 48 h
LOX IMVI melanoma = tested on: LOX IMVI melanoma
SF-295 CNS = tested on: SF-295 CNS
HCT-15 colon = tested on: HCT-15 colon
ACHN renal = tested on: ACHN renal
SK-OV-3 ovarian = tested on: SK-OV-3 ovarian
HOP-62 NSCLC = tested on: HOP-62 NSCLC
MCF7 breast = tested on: MCF7 breast
HOP-92 NSCLC = tested on: HOP-92 NSCLC
PC-3 prostate = tested on: PC-3 prostate
RXF 393 renal = tested on: RXF 393 renal

| SMILES | TGI (LOX IMVI melanoma) [µM] | TGI (SF-295 CNS) [µM] | TGI (HCT-15 colon) [µM] | TGI (ACHN renal) [µM] | TGI (SK-OV-3 ovarian) [µM] | TGI (HOP-62 NSCLC) [µM] | TGI (MCF7 breast) [µM] | TGI (HOP-92 NSCLC) [µM] | TGI (PC-3 prostate) [µM] | TGI (RXF 393 renal) [µM] | GI50 (LOX IMVI melanoma) [µM] | GI50 (SF-295 CNS) [µM] | GI50 (HCT-15 colon) [µM] | GI50 (ACHN renal) [µM] | GI50 (SK-OV-3 ovarian) [µM] | GI50 (HOP-92 NSCLC) [µM] | GI50 (RXF 393 renal) [µM] | GI50 (MCF7 breast) [µM] | GI50 (HOP-62 NSCLC) [µM] | GI50 (PC-3 prostate) [µM] |
| --- | --- | --- | --- | --- | --- | --- | --- | --- | --- | --- | --- | --- | --- | --- | --- | --- | --- | --- | --- | --- |
| C=CCc1cc(OC)c2c(c1)C(OC)CC(c1ccc(OC)c(OC)c1)O2 (stereo not given) | > 100 | > 100 | > 100 | > 100 | > 100 | > 100 |  |  |  |  |  |  |  |  |  |  |  |  |  |  |
| CCOC(=O)COc1ccc2c(C)cc(=O)oc2c1 | > 100 | > 100 | > 100 | > 100 |  | > 100 | > 100 | > 100 | > 100 | > 100 |  |  |  |  |  |  |  |  |  |  |
| CC1(C)C(=O)C(C)(C)C1=S | > 100 | > 100 | > 100 | > 100 | > 100 | > 100 |  |  |  |  |  |  |  |  |  |  |  |  |  |  |
| CCCCCCC[CH2][Sn]1([CH2]CCCCCCC)[O]C(=O)c2cccnc2[O]1 | > 100 | > 100 | > 100 | > 100 | > 100 |  |  | > 100 |  | > 100 | > 100 | > 100 | > 100 | > 100 | > 100 | > 100 | > 100 |  |  |  |
| CN(C)C(=S)SCC(=O)Nc1ccccc1 | > 100 | > 100 | > 100 | > 100 | > 100 | > 100 | > 100 | > 100 |  | > 100 |  |  |  |  |  |  |  |  |  |  |
| O=C(Nc1nc2c(ncn2C2OC(CO)C(O)C2O)c(=O)[nH]1)c1ccccc1 (stereo not given) | > 100 | > 100 | > 100 | > 100 | > 100 | > 100 |  | > 100 |  | > 100 |  |  |  |  |  |  |  |  |  |  |
| CCSc1c2ccccc2c(-c2nc(F)nc(F)n2)n1CCc1ccccc1 | > 100 | > 100 | > 100 | > 100 |  | > 100 |  | > 100 |  | > 100 |  |  |  |  |  |  |  |  |  |  |
| COc1cc(CCc2ccc(N)cc2)cc(OC)c1OC | > 100 | > 61.6 | > 100 | > 100 | > 100 | > 100 |  | > 100 |  | > 91.1 |  |  |  |  |  |  |  |  |  |  |
| Cn1nc(-c2ccccc2)c2c(/C=C/c3ccccc3)onc2c1=O | > 100 | > 100 | > 100 | > 100 | > 100 | > 100 |  | 98.2 |  | > 100 |  |  |  |  |  |  |  |  |  |  |
| CC(SC(=O)Nc1ccc(N=Nc2ccccc2)cc1)C(=O)O (stereo not given) | > 100 | > 100 | > 100 | > 100 |  | > 100 |  |  |  | > 100 |  |  |  |  |  |  |  |  |  |  |
| COC(=O)C=Cc1ccc2nncnc2c1 (mixture of isomers) | > 100 | 64.3 | > 100 | > 100 | > 100 | > 100 | > 100 |  | > 100 |  |  |  |  |  |  |  |  |  |  |  |
| CN1CSC(=S)N(Cc2ccccc2)C1 | 11.6 | > 100 | 22 | 27.1 | > 100 | > 100 | 17.6 |  | > 100 | 24 | 2.75 | 32.7 | 4.74 | 14.1 | > 100 |  | 11.7 | 3.18 | 18.6 | 42.4 |
| O=C(COc1cccc(/C=C2\CSc3ccccc3C2=O)c1)Nc1nccs1 | 3.06 | 3.59 | 5 | 7.96 | 27.7 | 23.2 | 3.54 |  | 4.24 |  | 1.58 | 2.09 | 2.17 | 2.66 | 14.6 |  |  | 0.779 | 11 | 1.82 |
| Brc1ccc2ns[s+]c2c1 | > 100 | > 100 | > 100 | > 100 | > 100 | > 31.6 |  | 95 |  | > 100 |  |  |  |  |  |  |  |  |  |  |
| CN(C)CCNC(=O)c1cccc2c1Oc1c(cccc1[N+](=O)[O-])O2 | 10.5 | 5.09 | 3.89 |  |  | 2.48 | > 100 |  | 12.5 | 4.94 |  |  |  |  |  |  |  |  |  |  |
| O=C1Cc2cc(C(=O)NC3C[C@H]4CC[C@@H](C3)N4S(=O)(=O)CC3CCN(CCCC(F)(F)F)CC3)c(Cl)cc2N1 (stereo not given in full) | > 100 | > 100 | > 100 | > 100 | > 100 | > 100 | > 100 | > 100 | > 100 |  | > 100 | > 100 | > 100 | > 100 | > 100 | 67.7 |  | > 100 | > 100 | > 100 |
| N#C/C(=C/NC(=S)c1ccncc1)C(N)=O | > 100 | > 100 | > 100 | > 100 | > 100 | > 100 | > 100 | > 100 |  | > 100 |  |  |  |  |  |  |  |  |  |  |
| CC(=O)O[C@H]1CC[C@@]2(C)C(=CC[C@@H]3C2CC[C@]2(C)Nc4nc5ccccc5cc4CC32)C1 (stereo not given in full) |  | 13.9 | 8.01 | 16.9 | 8.4 | 26.7 |  |  |  | 5.09 |  |  |  |  |  |  |  |  |  |  |
| Nc1c(Cl)ncnc1NCCCNc1ncnc(Cl)c1N | > 100 | > 100 | > 100 | > 100 | > 100 | > 100 |  | > 100 |  | > 100 |  |  |  |  |  |  |  |  |  |  |
| NC(=S)c1c(N)n(C2OC(CO)C(O)C2O)c2ncnc(N)c12 (stereo not given) |  | > 27.1 | 0.435 | > 100 | > 100 | 0.904 |  | 3.43 |  | 0.557 |  | 0.659 | 0.0573 | 0.268 | 0.388 | 0.302 | 0.237 | 0.0579 | 0.21 | 0.221 |
| NC(=O)NC1C(C(N)=O)N(Cc2ccccc2)C(=O)N1Cc1ccccc1 (stereo not given) | > 100 | > 100 | > 100 | > 100 | > 100 | > 100 |  | > 100 |  |  |  |  |  |  |  |  |  |  |  |  |
| COc1cccc(/C=C2\COc3ccc(-c4ccccc4)cc3C2=O)c1 | 4.62 | 10.3 | 4.72 | 5.59 | 35.8 | 9.58 | 9.17 | 9.41 | 16.2 |  | 2.02 | 2.52 | 1.78 | 2.13 | 5.25 | 2.34 |  | 2.05 | 3.91 | 2.87 |
